{"source": "patent US20170314056A1", "about": "“METHOD OF USING NEAR INFRARED FLUORESCENT DYES FOR IMAGING AND TARGETING CANCERS” (priority 2010, published 2017)", "key": {"human bladder tumors": {"system": "human bladder tumors", "experiment": "Uptake in freshly harvested human bladder tumor specimens", "assay_type": "cell-based", "source_text": "The inventors determined the ability of IR-783 as an imaging agent for freshly harvested human renal and bladder cancer specimens. […] Fresh tumor xenografts grown in mice (FIG. 35) are able to uptake the dye. […] The nature of this uptake at this time is not clear."}, "ARCaPM cells": {"system": "ARCaPM cells", "experiment": "Detection of prostate cancer cells in human blood", "assay_type": "cell-based", "procedure": "An experimental model of evaluating human prostate cancer cells in blood was developed. In brief, heparinized whole blood from human volunteers was collected according to an Emory University approved IRB protocol. A known number of human prostate cancer cells (10-1,000) were added to 1 ml of whole blood, mixed gently with 20 μM IR-783 and incubated for 30 minutes at 37° C. The mononuclear cells and cancer cells were recovered by gradient centrifugation using Histopaque-1077 (Sigma, St. Louis, Mo.). The isolated live cells were observed under a confocal fluorescence microscope."}, "[1]": {"system": "human renal tumor tissues", "experiment": "In vitro fluorescence imaging of freshly harvested human renal tumor tissues", "assay_type": "cell-based", "conditions": "fresh nephrectomy specimens; 20 µM dye, 37° C., 30 minutes", "procedure": "Kidney tumor tissue samples were collected from 5 patients immediately after tumor nephrectomy according to an Emory approved IRB protocol. All 5 patients had histologically confirmed renal cell carcinoma of the clear cell type. The tissues were excised from tumor area, normal area and the area of tumor and normal adjacent on the kidney removed. All above procedures were conducted on ice and the excised tissues were stored at 4° C. Each incised tissue was cut into three pieces and were incubated with 20 µM IR-783 dye, 20 µM IR-780 and PBS, respectively, at 37° C. for 30 minutes. The dye solutions were removed and the tissues were washed five times by PBS. Optical imaging was done using Kodak Imaging Station Imaging System (see above).\nTo determine dye uptake in tissues, tissues cut from incised kidney samples (described above) tumor were placed in OTC medium and frozen at −80° C. These frozen tissues were retrieved for histopathologic sections cut to 5 Lm thickness for pathologic observation under a confocal microscope as described above."}, "[2]": {"system": "TRAMP mouse prostate tumors", "experiment": "Detection of spontaneous prostate tumors in TRAMP transgenic mice", "assay_type": "in vivo", "procedure": "The uptake of cyanine dyes by the TRAMP mouse prostate model and the Apc^Min/+ mouse-adenoma model (obtained from The Jackson Laboratory, Bar Harbor, Me.) was assessed by a similar protocol as described above. We also utilized the Olympus OV100 imaging system to detect adenoma in the Apc^Min/+ mouse model. In brief, mice were injected intraperitoneally with IR-783 dye at a dose of 10 nmol/20 g body weight and animals were subjected to total body cyanine dye imaging as described above. Animals were sacrificed at 48 hrs after dye administration and tumors were dissected and subjected to NIR imaging. The presence of tumor cells in tissue specimens was confirmed by histopathologic analysis."}, "[3]": {"experiment": "Physicochemical properties of the dye"}, "P69 cells": {"system": "P69 cells", "experiment": "Live-cell kinetics of dye uptake in normal prostate epithelial cells", "assay_type": "cell-based, human", "procedure": "Cells were plated on live-cell imaging chambers (World Precision Instrument, Sarasota, Fla.) overnight. Cells were exposed to cyanine dyes at different concentrations and dye uptake was evaluated by a Perkin-Elmer Ultraview ERS spinning disc confocal microscope. This system was mounted on a Zeiss Axiovert 200m inverted microscope equipped with a 37° C. stage warmer, incubator, and constant CO2 perfusion. A 63× or 100× Zeiss oil objective (numerical aperture, 1.4) was used for live cell images and a Z-stack was created using the attached piezoelectric z-stepper motor. The 633 nm laser line of an argon ion laser (set at 60% power) was used to excite the cyanine dyes. […] For comparative studies, the exposure time and laser intensity were kept identical for accurate intensity measurements. Pixel intensity was quantified using Metamorph 6.1 (Universal Imaging, Downingtown, Pa.) and the mean pixel intensity was generated as grey level using the Region Statistics feature on the software (23). To determine the dye uptake by the mitochondria, the mitochondrial tracking dye Mito Tracker Orange CMTMROS (Molecular Probes, Carlsbad, Calif.) was used. To determine the dye localization in lysosomes, a lysosome tracking dye, Lyso Tracker Green DND-26 (Molecular Probes, Carlsbad, Calif.), was selected. Imaging of mitochondrial and/or lysosome localization of the cyanine dye was conducted under confocal microscopy (24).\nTo determine if the cyanine dye uptake and accumulation in cancer cells was dependent upon OATPs, cells were preincubated with 250 μM bromosulfophthalein (BSP), a competitive inhibitor of organic anion transporting peptides (OATPs) (25), for 5 minutes prior to incubating the cells with cyanine dyes. The uptake and accumulation of cyanine dyes in the presence and absence of BSP were conducted in the stage warmer incubator for a period of 35 minutes. The levels of cyanine dye taken up and accumulated in normal prostate (P69) and prostate cancer (ARCaPM) cells were determined and compared on a real-time basis."}, "ARCaPM tumor": {"system": "ARCaPM tumor", "experiment": "Dye biodistribution in ARCaPM tumor-bearing mice", "assay_type": "in vivo, mouse", "source_text": "To assess tissue distribution of these dyes, athymic mice without tumor implantation were sacrificed at 0, 6 and 80 hrs (N=3 each) after i.v. injection of IR-783 dye at a dose of 10 nmol/20 g. Dissected organs were subjected to NIR imaging by a Kodak Imaging Station 4000 MM. In another study the mice bearing orthotopic ARCaPM tumors were subjected to NIR imaging at 0.5, 24, 48, 72 and 96 hrs after IR-783 i.v. administration at a dose of 10 nmol/20 g. In some cases, we also assessed the biodistribution of NIR dye by a spectral method in tissues harvested from athymic mice bearing subcutaneous ARCaPM tumors (N=6). Tumors and normal host organs were homogenized in PBS, centrifuged at 15,000×g for 15 minutes to recover the supernatant fraction after the mice were injected i.p. with IR-783 at a dose of 10 nmol/20 g. The presence of the organic dyes (parental IR-783 and its metabolites) in tissues was estimated spectrophotometrically at an emission wavelength of 820 nm by a PTI Near Infrared Fluorometer QuantaMaster™ 50 (PTI, Birmingham, N.J.) equipped with a 75-watt xenon arc lamp under 500 to 1700 nm InGaAs detector using known concentrations of IR-783 as the standard (28). In other cases, tumor tissues harvested from mice were stored in formalin from 1 week to 3 months, and fluorescence images were obtained and compared."}}, "note": "Entries after “also recorded” stand apart in the source; their conditions may differ."}
{"substance": "2-[2-[2-Chloro-3-[2-[1,3-dihydro-3,3-dimethyl-1-(4-sulfobutyl)-2H-indol-2-ylidene]-ethylidene]-1-cyclohexen-1-yl]-ethenyl]-3,3-dimethyl-1-(4-sulfobutyl)-3H-indolium [IR-783]", "values": [{"measurement": "dye uptake in normal tissue", "setting": "human bladder tumors; freshly harvested bladder specimens", "result": "to a much lesser extent by normal tissue"}, {"measurement": "dye uptake by fat cells and tissues", "setting": "human bladder tumors; freshly harvested specimens", "result": "can also be taken up by fatty tissues; also recorded: also taken up by fat cells and tissues"}, {"measurement": "dye uptake in human bladder tumor tissue", "setting": "human bladder tumors; freshly harvested specimens", "result": "can be taken up; also recorded: taken up by tumor tissues"}, {"measurement": "fewest cancer cells detected in whole blood", "setting": "ARCaPM cells; ARCaPM cells (10 to 1,000) added to 1 ml whole blood", "result": "10 cancer cells per milliliter"}, {"measurement": "visualization / dye uptake of cancer cells mixed with human blood", "setting": "ARCaPM cells; ARCaPM cells, 20 μM IR-783, 30 minutes, 37° C.", "result": "clearly visualized; also recorded: Significant uptake and retention"}, {"measurement": "signal in mononuclear cells", "setting": "ARCaPM cells; human blood, 20 μM IR-783", "result": "hardly showed any signals"}, {"measurement": "dye uptake in human renal tumor tissue", "setting": "[1]", "result": "can be taken up; also recorded: significant uptake; also recorded: strong IR-783 uptake"}, {"measurement": "dye uptake in normal kidney tissue", "setting": "[1]", "result": "substantial low uptake; also recorded: undetectable; also recorded: not in normal kidney tissues"}, {"measurement": "signal in tumor tissues compared with IR-780 and PBS", "setting": "[1]", "result": "stronger signals in tumor tissues than the IR-780 and PBS group"}, {"measurement": "detection of / dye uptake by TRAMP prostate tumors", "setting": "[2]; TRAMP mice, IR-783 i.p. 10 nmol/20 g", "result": "accumulate in prostate tumors and their metastases; also recorded: could detect tumor; also recorded: active uptake; also recorded: only tumor-positive signal"}, {"measurement": "NIR fluorescence of tumor specimen after formalin fixation", "setting": "[2]; TRAMP tumor, formalin solution for 3 weeks", "result": "retain heptamethine cyanine NIR fluorescence; also recorded: strong NIR signal"}, {"measurement": "photostability", "setting": "[3]", "result": "relatively photostable"}, {"measurement": "water solubility", "setting": "[3]", "result": "water-soluble"}, {"measurement": "uptake of dye in P69 cells", "setting": "P69 cells; confocal imaging, 630×", "result": "not in normal human prostate epithelial P69 cells"}, {"measurement": "plateau of uptake and retention compared with ARCaP cells", "setting": "P69 cells; control P69 cells", "result": "much lower plateau"}, {"measurement": "start of uptake and retention", "setting": "P69 cells; control P69 cells", "result": 12, "unit": "min"}, {"measurement": "dye signal in tumor tissue", "setting": "ARCaPM tumor; 24 hrs after dye, ARCaPM tumor, in vivo and ex vivo imaging", "result": "accumulate in tumor tissues; also recorded: strong signals"}, {"measurement": "signal to noise ratios in tumor specimens", "setting": "ARCaPM tumor; in vivo whole body and ex vivo analysis", "result": "exceeding 25"}, {"measurement": "apparent concentration of dye and its metabolites in tumors versus normal tissues", "setting": "ARCaPM tumor; light emission intensity at 820 nm, P<0.05, 3 determinations", "result": "~10", "unit": "fold"}, {"measurement": "signals in normal organs", "setting": "ARCaPM tumor; liver, lung, heart, spleen and kidneys", "result": "very low signals"}, {"measurement": "time at which tumors still retained dye", "setting": "ARCaPM tumor; orthotopic ARCaPM tumor, i.v. 10 nmol/20 g", "result": "≥ 4", "unit": "days"}]}
